Assay results published in patent publication US10030020B2, “Spirocycle compounds and methods of making and using same” (Abide Therapeutics, Inc., priority 2016, dated 2018).

How the values were obtained:
Type in all cases: biochemical
MAGL = MAGL (Mus musculus (Mouse), UniProt O35678); assay: In vitro competitive activity-based protein profiling (mouse brain membrane fraction or cell lysates), MAGL band; conditions: mouse proteome; for inhibition at 1 µM: read-out: MAGL % Inh 1 μM (mouse); for IC50: competitive ABPP
MAGL, sequence (O35678 whole entry): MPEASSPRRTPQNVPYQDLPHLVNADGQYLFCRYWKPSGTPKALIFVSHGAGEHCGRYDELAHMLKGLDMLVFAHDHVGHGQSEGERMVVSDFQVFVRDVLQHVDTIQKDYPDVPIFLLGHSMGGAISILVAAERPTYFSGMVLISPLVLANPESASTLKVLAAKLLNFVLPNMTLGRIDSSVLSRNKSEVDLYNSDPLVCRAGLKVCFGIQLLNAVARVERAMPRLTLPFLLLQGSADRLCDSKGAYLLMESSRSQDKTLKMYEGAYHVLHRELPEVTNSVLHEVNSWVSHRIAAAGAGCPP
Experimental: In Vitro Competitive Activity-Based Protein Profiling.
Proteomes (mouse brain membrane fraction or cell lysates) (50 μL, 1.0 mg/mL total protein concentration) were preincubated with varying concentrations of inhibitors at 37° C. After 30 min, FP—Rh (1.0 μL, 50 μM in DMSO) was added and the mixture was incubated for another 30 min at 37° C. Reactions were quenched with SDS loading buffer (50 μL-4×) and run on SDS-PAGE.

ABHD6 = ABHD6 (Mus musculus (Mouse), UniProt Q8R2Y0); assay: In vitro competitive activity-based protein profiling (mouse brain membrane fraction or cell lysates), ABHD6 band; conditions: mouse proteome; for inhibition at 1 µM: read-out: ABHD6 % Inh 1 μM (mouse); for IC50: competitive ABPP
ABHD6, sequence (Q8R2Y0 whole entry): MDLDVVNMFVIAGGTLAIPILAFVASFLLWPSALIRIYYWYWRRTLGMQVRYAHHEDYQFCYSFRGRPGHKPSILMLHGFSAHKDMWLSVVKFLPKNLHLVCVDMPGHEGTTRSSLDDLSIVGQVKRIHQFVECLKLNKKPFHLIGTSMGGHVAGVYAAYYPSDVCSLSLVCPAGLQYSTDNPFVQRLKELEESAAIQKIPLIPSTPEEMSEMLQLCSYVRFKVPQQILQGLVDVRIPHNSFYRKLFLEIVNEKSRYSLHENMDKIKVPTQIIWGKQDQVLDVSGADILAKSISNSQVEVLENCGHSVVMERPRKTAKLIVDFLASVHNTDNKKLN
How it was run: (§1)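 Competitive ABPP: proteome 1.0 mg/mL protein + inhibitor, 30 min, 37° C; FP-Rh probe (stock 50 μM in DMSO) added, 30 min, 37° C; SDS quench, SDS-PAGE, fluorescent band intensity read.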

FAAH = FAAH (Mus musculus (Mouse), UniProt O08914); assay: In vitro competitive activity-based protein profiling (mouse brain membrane fraction or cell lysates), FAAH band; conditions: mouse proteome; for inhibition at 1 µM: read-out: FAAH % Inh 1 μM (mouse); for IC50: competitive ABPP
FAAH, sequence (O08914 whole entry): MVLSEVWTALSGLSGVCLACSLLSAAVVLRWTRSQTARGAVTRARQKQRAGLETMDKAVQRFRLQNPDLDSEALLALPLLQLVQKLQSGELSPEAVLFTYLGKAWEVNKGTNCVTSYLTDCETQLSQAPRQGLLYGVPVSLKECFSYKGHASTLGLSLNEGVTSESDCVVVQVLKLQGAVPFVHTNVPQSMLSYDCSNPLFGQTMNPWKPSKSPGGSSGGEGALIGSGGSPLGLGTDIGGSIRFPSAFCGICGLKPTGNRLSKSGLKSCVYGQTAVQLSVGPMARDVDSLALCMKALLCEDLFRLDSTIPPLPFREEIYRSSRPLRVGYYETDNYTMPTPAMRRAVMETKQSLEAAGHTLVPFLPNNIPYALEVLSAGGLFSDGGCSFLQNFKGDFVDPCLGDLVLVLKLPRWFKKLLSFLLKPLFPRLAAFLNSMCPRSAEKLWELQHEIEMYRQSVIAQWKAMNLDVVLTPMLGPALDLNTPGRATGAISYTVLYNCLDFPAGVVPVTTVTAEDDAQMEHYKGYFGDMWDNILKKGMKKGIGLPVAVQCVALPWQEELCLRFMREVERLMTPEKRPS
How it was run: as §1

SMILES | inhibition at 1 µM (MAGL) | IC50 (MAGL) | inhibition at 1 µM (ABHD6) | IC50 (ABHD6) | inhibition at 1 µM (FAAH) | IC50 (FAAH)
CCN1CCc2cccc(CN3CCC4(CCN(C(=O)OC(C(F)(F)F)C(F)(F)F)CC4)C3)c2C1 [Example 159, 1,1,1,3,3,3-Hexafluoropropan-2-yl 2-((2-ethyl-1,2,3,4-tetrahydroisoquinolin-8-yl)methyl)-2,8-diazaspiro[4.5]decane-8-carboxylate] | > 75% | < 0.1 µM | ≥ 75% | > 1 µM | < 25% | > 1 µM
CC(=O)N1CCc2cccc(CN3CCC4(CCN(C(=O)OC(C(F)(F)F)C(F)(F)F)CC4)C3)c2C1 [Example 160, 1,1,1,3,3,3-Hexafluoropropan-2-yl 2-((2-acetyl-1,2,3,4-tetrahydroisoquinolin-8-yl)methyl)-2,8-diazaspiro[4.5]decane-8-carboxylate] | > 75% | < 0.1 µM | ≥ 75% | < 0.1 µM | < 25% | > 1 µM
CS(=O)(=O)N1CCc2cccc(CN3CCC4(CCN(C(=O)OC(C(F)(F)F)C(F)(F)F)CC4)C3)c2C1 [Example 161, 1,1,1,3,3,3-hexafluoropropan-2-yl 2-((2-(methylsulfonyl)-1,2,3,4-tetrahydroisoquinolin-8-yl)methyl)-2,8-diazaspiro[4.5]decane-8-carboxylate] | > 75% | < 0.1 µM | ≥ 75% | < 0.1 µM | < 25% | > 1 µM
CC(C)N1CCc2cccc(CN3CCC4(CCN(C(=O)OC(C(F)(F)F)C(F)(F)F)CC4)C3)c2C1 [Example 162, 1,1,1,3,3,3-Hexafluoropropan-2-yl 2-((2-isopropyl-1,2,3,4-tetrahydroisoquinolin-8-yl)methyl)-2,8-diazaspiro[4.5]decane-8-carboxylate] | > 75% | < 0.1 µM | ≥ 75% | 0.1 to 1 µM | < 25% | > 1 µM
O=C(OC(C(F)(F)F)C(F)(F)F)N1CCC2(CCN(Cc3cccc4c3CN(C3CC3)CC4)C2)CC1 [Example 163, 1,1,1,3,3,3-Hexafluoropropan-2-yl 2-((2-cyclopropyl-1,2,3,4-tetrahydroisoquinolin-8-yl)methyl)-2,8-diazaspiro[4.5]decane-8-carboxylate] | > 75% | < 0.1 µM | 25 to 75% | 0.1 to 1 µM | < 25% | > 1 µM
CC(C)CN1CCc2cccc(CN3CCC4(CCN(C(=O)OC(C(F)(F)F)C(F)(F)F)CC4)C3)c2C1 [Example 164, 1,1,1,3,3,3-Hexafluoropropan-2-yl 2-((2-isobutyl-1,2,3,4-tetrahydroisoquinolin-8-yl)methyl)-2,8-diazaspiro[4.5]decane-8-carboxylate] | > 75% | < 0.1 µM | ≥ 75% | 0.1 to 1 µM | < 25% | > 1 µM
CN1CCC(Oc2cc(C(F)(F)F)ccc2CN2CCCC23CCN(C(=O)OC(C(F)(F)F)C(F)(F)F)CC3)CC1 [Example 165, 1,1,1,3,3,3-Hexafluoropropan-2-yl 1-(2-(1-methylpiperidin-4-yloxy)-4-(trifluoromethyl)benzyl)-1,8-diazaspiro[4.5]decane-8-carboxylate] | > 75% | < 0.1 µM | 25 to 75% | > 1 µM | < 25% | > 1 µM
O=C(COc1cc(C(F)(F)F)ccc1CN1CCCC12CCN(C(=O)OC(C(F)(F)F)C(F)(F)F)CC2)N1CCCC1 [Example 167, 1,1,1,3,3,3-Hexafluoropropan-2-yl 1-(2-(2-oxo-2-(pyrrolidin-1-yl)ethoxy)-4-(trifluoromethyl)benzyl)-1,8-diazaspiro[4.5]decane-8-carboxylate] | > 75% | < 0.1 µM | 25 to 75% | > 1 µM | < 25% | > 1 µM
O=C(OC(C(F)(F)F)C(F)(F)F)N1CCC2(CCCN2Cc2ccc(C(F)(F)F)cc2OC2CCOCC2)CC1 [Example 169, 1,1,1,3,3,3-Hexafluoropropan-2-yl 1-(2-(tetrahydro-2H-pyran-4-yloxy)-4-(trifluoromethyl)benzyl)-1,8-diazaspiro[4.5]decane-8-carboxylate] | > 75% | < 0.1 µM | 25 to 75% | > 1 µM | < 25% | > 1 µM
O=C(OC(C(F)(F)F)C(F)(F)F)N1CCC2(CCCN2Cc2ccc(C(F)(F)F)cc2Oc2nc3ccccc3s2)CC1 [Example 171, 1,1,1,3,3,3-Hexafluoropropan-2-yl 1-(2-(benzo[d]thiazol-2-yloxy)-4-(trifluoromethyl)benzyl)-1,8-diazaspiro[4.5]decane-8-carboxylate] | > 75% | 0.1 to 1 µM | < 25% | > 1 µM | < 25% | > 1 µM
O=C(OC(C(F)(F)F)C(F)(F)F)N1CCC2(CCCN2Cc2ccc(C(F)(F)F)cc2OC2CCS(=O)(=O)CC2)CC1 [Example 175, 1,1,1,3,3,3-Hexafluoropropan-2-yl 1-(2-((1,1-dioxidotetrahydro-2H-thiopyran-4-yl)oxy)-4-(trifluoromethyl)benzyl)-1,8-diazaspiro[4.5]decane-8-carboxylate] | > 75% | < 0.1 µM | < 25% | > 1 µM | < 25% | > 1 µM
NC(=O)c1ccc(CN2CCCC23CCN(C(=O)OC(C(F)(F)F)C(F)(F)F)CC3)cc1C(F)(F)F [Example 181, 1,1,1,3,3,3-Hexafluoropropan-2-yl 1-(4-carbamoyl-3-(trifluoromethyl)benzyl)-1,8-diazaspiro[4.5]decane-8-carboxylate] | > 75% | < 0.1 µM | 25 to 75% | 0.1 to 1 µM | < 25% | > 1 µM
CC1(C)CC2(CCN(C(=O)OC(C(F)(F)F)C(F)(F)F)CC2)CN1Cc1cccc(N2CCOCC2)c1Cl [Example 185, 1,1,1,3,3,3-hexafluoropropan-2-yl 2-(2-chloro-3-morpholinobenzyl)-3,3-dimethyl-2,8-diazaspiro[4.5]decane-8-carboxylate] | > 75% | 0.1 to 1 µM | ≥ 75% | 0.1 to 1 µM | < 25% | > 1 µM
CC1(C)CC2(CCN(C(=O)OC(C(F)(F)F)C(F)(F)F)CC2)CN1Cc1cc(Cl)cc(N2CCOCC2)c1 [Example 186, 1,1,1,3,3,3-Hexafluoropropan-2-yl 2-(3-chloro-5-morpholinobenzyl)-3,3-dimethyl-2,8-diazaspiro[4.5]decane-8-carboxylate] | > 75% | 0.1 to 1 µM | 25 to 75% | 0.1 to 1 µM | < 25% | > 1 µM
CC1(C)CC2(CCN(C(=O)OC(C(F)(F)F)C(F)(F)F)CC2)CN1Cc1cc(Cl)ccc1N1CCOCC1 [Example 187, 1,1,1,3,3,3-Hexafluoropropan-2-yl 2-(5-chloro-2-morpholinobenzyl)-3,3-dimethyl-2,8-diazaspiro[4.5]decane-8-carboxylate] | > 75% | < 0.1 µM | ≥ 75% | 0.1 to 1 µM | < 25% | > 1 µM
